Among the test systems are MDA-MB-435; SNB-75; SF-539; HCC 2998; BT-549; MDA-MB-231; OVCAR-5; COLO 205; CAKI-1; NCI-H460; M14; HCT-116; NCI-H226; NCI-H23; PC-3; A549; UACC-257; SK-MEL-2; MCF7.
What all share (test): NCI anticancer screen, dose series, 48 h

The text below walks through data of ChEMBL document CHEMBL1201862, “PubChem BioAssay data set” (2004).

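Cells were grown in 96-well plates and exposed to each compound for 48 hours at five concentrations; endpoints were interpolated linearly between bracketing concentrations, or set to the highest concentration if not reached. GI50 is the concentration that inhibits growth by half.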 Active and inactive are the calls of the source. Cut-off read from the data, not from the text of the source: active = GI50 up to about 1.1 µM and inactive = higher.

As for `Cc1cc2c(cc1Cl)SC(NNc1cnc3ccccc3n1)=NS2(=O)=O`, the GI50 in the test on MDA-MB-435 was > 100 µM (inactive); in the test with SNB-75, 72.3 µM (inactive); in the test on SF-539, 29.4 µM (inactive); in the test with HCC 2998, 67.9 µM (inactive); in the test with BT-549 it was > 100 µM (inactive); in the test with MDA-MB-231, 61 µM (inactive). Also, the GI50 in the test with OVCAR-5 was > 100 µM (inactive); in the test on COLO 205, 49.7 µM (inactive); in the test on CAKI-1 it was > 100 µM (inactive); in the test with NCI-H460, 33.8 µM (inactive); with M14 it was 74.1 µM (inactive); with HCT-116, 48.1 µM (inactive). The GI50 is 44.4 µM (inactive) in the test with NCI-H226; > 100 µM (inactive) in the test on NCI-H23; 35.4 µM (inactive) in the test on PC-3; 78.9 µM (inactive) with A549; 72.8 µM (inactive) in the test on UACC-257.

For `c1cc2c(cc1C1=NCCN1)c1cc(C3=NCCN3)ccc1n2CC1CCCCC1`, the GI50 in the test on MDA-MB-435 is 18 µM (inactive); in the test on SNB-75 it was 11.6 µM (inactive); with SF-539 it was 3.65 µM (inactive); in the test on BT-549 it was 18.5 µM (inactive); in the test with MDA-MB-231, 16.6 µM (inactive); with OVCAR-5, 22.1 µM (inactive). Further, the GI50 in the test on COLO 205 was 1.74 µM (inactive); with CAKI-1 it was > 100 µM (inactive); in the test with NCI-H460, 14.7 µM (inactive); in the test with M14 it was 33.6 µM (inactive); in the test with HCT-116 it was 12.9 µM (inactive); in the test with NCI-H226 it was 12.3 µM (inactive). Moreover, the GI50 in the test on SK-MEL-2 was 15.7 µM (inactive); in the test on NCI-H23, 17.1 µM (inactive); in the test with PC-3, 21.5 µM (inactive); with A549, 19.1 µM (inactive); with UACC-257, 22.7 µM (inactive).

For the molecule `N#CC(C#N)=CNC(=S)Nc1ccc(S(=O)(=O)Nc2nccs2)cc1`, the GI50 with MDA-MB-435, in the test on SNB-75, in the test with SF-539, in the test with HCC 2998, in the test with BT-549 and in the test with MDA-MB-231 was > 100 µM (inactive) throughout. The GI50 with OVCAR-5, in the test on COLO 205, in the test with CAKI-1, in the test on NCI-H460, in the test with M14 and with MCF7 was > 100 µM (inactive) throughout. Moreover, the GI50 with HCT-116, in the test with NCI-H226, in the test with SK-MEL-2, with NCI-H23, in the test on A549 and in the test on UACC-257 was > 100 µM (inactive) each time.

With `CN(C)CCNc1ccc(NCC[N+](C)(C)Cc2ccc([N+](=O)[O-])cc2)c2c1C(=O)c1c(O)ccc(O)c1C2=O`, the GI50 with MDA-MB-435 was 35.2 µM (inactive); with SNB-75, 19.6 µM (inactive); with HCC 2998 it was > 10 µM (inactive); with BT-549, 18.8 µM (inactive); with MDA-MB-231, 43.2 µM (inactive); in the test with COLO 205, 27.6 µM (inactive). Further, the GI50 in the test on CAKI-1 is 12.2 µM (inactive); in the test with HCT-116, 15.8 µM (inactive); in the test on NCI-H226, 15.3 µM (inactive); in the test on SK-MEL-2, > 100 µM (inactive); in the test with NCI-H23 it was 54 µM (inactive); in the test on PC-3, 56 µM (inactive).

Regarding `Cc1ccc2c(=O)c(C(=O)N(CCO)CCO)c[nH]c2n1`, the GI50 with MDA-MB-435, with BT-549, in the test on MDA-MB-231, in the test on OVCAR-5, in the test with COLO 205 and in the test with CAKI-1 was > 100 µM (inactive) each time. Also, the GI50 with NCI-H460, in the test with M14, with MCF7, with HCT-116, in the test on NCI-H226 and in the test on SK-MEL-2 was > 100 µM (inactive) throughout. Also, the GI50 with NCI-H23, in the test on PC-3, with A549 and in the test with UACC-257 was > 100 µM (inactive) throughout.

`NS(=O)(=O)c1nnc(NC(=O)c2ccccc2)s1`: the GI50 in the test on MDA-MB-435, in the test on SF-539, in the test with HCC 2998, in the test on BT-549, in the test on MDA-MB-231 and in the test with OVCAR-5 was > 100 µM (inactive) throughout. For the same molecule, the GI50 in the test on COLO 205, in the test on CAKI-1, in the test with NCI-H460, with M14, with MCF7 and in the test on HCT-116 was > 100 µM (inactive) each time. The GI50 in the test on NCI-H226, in the test with SK-MEL-2, in the test with NCI-H23, in the test with A549 and with UACC-257 was > 100 µM (inactive) throughout.

As to `O=C(O)c1cc(Cl)cc(Cc2cc(Cl)cc(C(=O)O)c2O)c1O`, the GI50 with MDA-MB-435, with SNB-75, in the test with SF-539, in the test with BT-549, in the test on MDA-MB-231 and with OVCAR-5 was > 100 µM (inactive) each time. Also, the GI50 with COLO 205, with CAKI-1, with NCI-H460, in the test on M14, with MCF7 and in the test on HCT-116 was > 100 µM (inactive) each time. For the same molecule, the GI50 in the test with SK-MEL-2, with NCI-H23, in the test with PC-3 and with A549 was > 100 µM (inactive) throughout.

Consider `FC1C2=C(SC1(F)F)C1CCC2C1` (stereo not drawn), for which the GI50 in the test on MDA-MB-435, in the test on SNB-75, in the test on BT-549, in the test on MDA-MB-231, with OVCAR-5 and in the test on COLO 205 was > 100 µM (inactive) in each case. The GI50 in the test on CAKI-1, in the test on NCI-H460, in the test with M14, with MCF7, in the test with HCT-116 and in the test with NCI-H226 was > 100 µM (inactive) each time. Also, the GI50 in the test with SK-MEL-2, in the test on NCI-H23, in the test on PC-3, with A549 and in the test on UACC-257 was > 100 µM (inactive) throughout.

Turning to `Cc1c2ccccc2c(C2C3C(=O)N(c4ccc(Br)cc4)C(=O)C3ON2C(C(N)=O)c2ccccc2)c2ccccc12` (stereo not drawn), the GI50 was 3.13 µM (inactive) in the test on MDA-MB-435; 5.02 µM (inactive) in the test on SNB-75; 4.13 µM (inactive) with SF-539; 12.1 µM (inactive) in the test with HCC 2998; 7.29 µM (inactive) in the test with BT-549; 5.6 µM (inactive) in the test on OVCAR-5. In addition, the GI50 with COLO 205 is 1.77 µM (inactive); in the test with CAKI-1, 3.67 µM (inactive); in the test on NCI-H460 it was 3.56 µM (inactive); with M14, 5.69 µM (inactive); in the test with MCF7, 4.43 µM (inactive); in the test with HCT-116 it was 4.37 µM (inactive). The GI50 with NCI-H226 is 5.3 µM (inactive); with SK-MEL-2, 5.62 µM (inactive); in the test on NCI-H23, 5.56 µM (inactive); with PC-3, 4.86 µM (inactive); in the test on A549 it was 3.64 µM (inactive); in the test with UACC-257, 7.08 µM (inactive).

In the case of `CC1OC2OC3C(OCC(O)C3O)OC(=O)[C@]34CCC(C)(C)CC3C3=CCC5[C@@]6(C)C[C@H](O)[C@H](OC7OC(CO)C(O)C(O)C7OC7OC(COC(=O)CC(C)(O)CC(=O)OC1C(OC1OC(CO)C(O)C(O)C1O)C2O)C(O)C(O)C7O)[C@@](C)(CO)C6CC[C@@]5(C)[C@]3(C)CC4` (stereo partly drawn), the GI50 was 1.91 µM (inactive) in the test with MDA-MB-435; 2.82 µM (inactive) in the test with SNB-75; 5.46 µM (inactive) with SF-539; 1.42 µM (inactive) in the test with HCC 2998; 6.03 µM (inactive) in the test on BT-549; 7.52 µM (inactive) with MDA-MB-231. Moreover, the GI50 with OVCAR-5 was 2.01 µM (inactive); in the test on COLO 205, 2.23 µM (inactive); in the test on CAKI-1, 7.53 µM (inactive); with NCI-H460, 9.55 µM (inactive); in the test with M14 it was 2.51 µM (inactive); with HCT-116, 2.59 µM (inactive). Further, the GI50 in the test with NCI-H226 is 7.91 µM (inactive); in the test on SK-MEL-2, 1.58 µM (inactive); in the test with NCI-H23, 1.51 µM (inactive); with PC-3, 1.95 µM (inactive); in the test with A549, 0.14 µM (active); with UACC-257, 1.64 µM (inactive).

In the case of `COc1cc(/C=C2\C(=O)N(c3ccccc3)C(c3ccccc3)S2(=O)=O)cc(OC)c1OC` (stereo not drawn), the GI50 was 27 µM (inactive) in the test with MDA-MB-435; 45.1 µM (inactive) with SF-539; 64.6 µM (inactive) with HCC 2998; 35.6 µM (inactive) with BT-549; 97.5 µM (inactive) in the test on MDA-MB-231; > 100 µM (inactive) with OVCAR-5. Moreover, the GI50 is 23.3 µM (inactive) in the test on COLO 205; 88.7 µM (inactive) in the test with CAKI-1; 54 µM (inactive) with NCI-H460; 35.2 µM (inactive) in the test with M14; 31.2 µM (inactive) in the test with MCF7; 21.1 µM (inactive) in the test with HCT-116. For the same molecule, the GI50 in the test on NCI-H226 was 46.8 µM (inactive); in the test with SK-MEL-2, 42.6 µM (inactive); in the test on NCI-H23, 39.1 µM (inactive); with A549, 43.8 µM (inactive); in the test on UACC-257 it was 32.1 µM (inactive).
